Data: patent publication US10844015B2, “Pyridine dicarboxamide derivatives as bromodomain inhibitors” (GlaxoSmithKline Intellectual Property (No. 2) Limited, priority 2016, dated 2020)

Experiments:
BRD4 BD2 = target: T1, BRD4 BD2 (Homo sapiens, UniProt O60885, Y97A); assay: BRD4 BD2 TR-FRET competition assay; format: binding; settings: single mutant tandem BRD4 protein; for IC50: read-out: pIC50 in the BRD4 BD2 assay (converted)
T1 construct: BRD4 (1-477) (Y97A) and (Y390A); made in house; host or cells: E. coli (pET15b vector)
Procedure: Time Resolved Fluorescence Resonance Energy Transfer (TR-FRET) Assay
Bromodomain binding was assessed utilising a time resolved fluorescent resonance energy transfer (TR-FRET) competition assay. To enable this approach a known, high affinity, pan-BET interacting small molecule was labelled with Alexa Fluor® 647, which is a far-red-fluorescent dye (Reference Compound X). Reference Compound X acts as a reporter of bromodomain binding and is the acceptor fluorophore component of the TR-FRET pair. Europium chelate, conjugated to an anti-6*His antibody, was utilised as the donor fluorophore in the TR-FRET pair. […] A TR-FRET signal is generated when the donor and acceptor fluorophores are in close proximity, between 20-80 Å, which is enabled in this assay by binding of Reference Compound X to the bromodomain protein.
In order to generate a TR-FRET signal, donor fluorophore is excited by a laser at A337 nm, which subsequently leads to emission at A618 nm. If the acceptor fluorophore is in close proximity then energy transfer can occur, which leads to emission of Alexa Fluor® 647 at A665 nm. In the presence of competitor compound, Reference Compound X can be displaced from binding to the bromodomain. If displacement occurs, the acceptor fluorophore is no longer in proximity to the donor fluorophore, which prevents fluorescent energy transfer and, subsequently, a loss of Alexa Fluor® 647 emission at λ665 nm.
(§1) The competition of the compounds of formula (I) with Reference Compound X for binding to the BET family (BRD2, BRD3, BRD4 and BRDT) was assessed using protein truncates spanning both bromodomain 1 (BD1) and bromodomain 2 (BD2). In order to monitor differential binding to either BD1 or BD2, single residue mutations of key tyrosines to alanine were made in the acetyl lysine binding pockets. To validate this approach, a double residue mutant tandem domain protein was produced for each of the BET family members. Utilising a Fluorescence Polarisation approach, binding affinities for each of the single and double mutants for Reference Compound X were determined.
Final purification was completed by Superdex 200 prep grade size exclusion column. Purified protein was stored at −80° C. in 20 mM HEPES pH 7.5 and 100 mM NaCl.
Protocol for Bromodomain BRD2, 3, 4 and T, BD1+BD2 Mutant TR-FRET Competition Assays:
(§2) All assay components were dissolved in an assay buffer composing of 50 mM HEPES pH7.4, 50 mM NaCl, 5% Glycerol, 1 mM DTT and 1 mM CHAPS. […] The solution containing bromodomain and Reference Compound X was added to dose response dilutions of test compound or DMSO vehicle (a maximum of 0.5% DMSO is used in this assay) in Greiner 384 well black low volume microtitre plates and subsequently incubated for 30 minutes at room temperature. An equal volume of 3 nM of anti-6*His Europium chelate was added to all wells, followed by a further 30 minute incubation at room temperature. TR-FRET was detected using a Perkin Elmer Multimode plate reader, by exciting the donor fluorophore at λ337 nm and subsequently, after a delay of 50 μsecs, measuring emission of the donor and acceptor fluorophores at λ615 nm and λ665 nm, respectively. In order to control these assays, 16 replicates each of uninhibited (DMSO vehicle) and inhibited (10*IC50 concentrations of Example 11 of WO 2011/054846A1) TR-FRET assays were included on every microtitre plate.
cA four parameter curve fit of the following form was then applied: y=a+((b−a)/(1+(10^x/10^c)^d) • Where ‘a’ is the minimum, ‘b’ is the Hill slope, ‘c’ is the pIC50 and ‘d’ is the maximum.
(§3) All compounds (Examples) were each tested in the BRD4 BD1 and the BRD4 BD2 TR-FRET assays essentially as described above. Those of skill in the art will recognise that in vitro binding assays and cell-based assays for functional activity are subject to experimental variability. Accordingly, it is to be understood that the pIC50 values given below are exemplary only. pIC50 values are expressed as log10 units.

BRD4 BD2 over BRD4 BD1 = assay: Calculation of selectivity for BRD4 BD2 over BRD4 BD1 from the TR-FRET assays; format: binding, Human; settings: for fold selective for BRD4 BD2 over BRD4 BD1: stated from the log unit selectivity; for selectivity for BRD4 BD2 over BRD4 BD1: BRD4 BD2 pIC50 − BRD4 BD1 pIC50, in at least one of the TR-FRET assays
Procedure: as §1, §2, §3
Calculation of Selectivity for BRD4 BD2 Over BRD4 BD1
Selectivity for BRD4 BD2 over BRD4 BD1 was calculated as follows: Selectivity=BRD4BD2pIC50−BRD4BD1pIC50

[1] = test system: BET family (BRD2, BRD3, BRD4 and BRDT) tandem bromodomain proteins; assay: Fluorescence Polarisation binding affinities of single and double mutant tandem BET proteins for Reference Compound X; design: species or system Human
Procedure: as §1, with “determined. […] The affinities of the single mutated bromdomain tandem proteins for Reference Compound X were equi-potent with the corresponding non-mutated BET protein. […] In the TR-FRET competition assay, Reference Compound X is used at a concentration that is equivalent to the Kd for the non-mutated bromodomain, which ensures that no binding at the mutated bromodomain is detected.” for “determined.”
Recombinant Human Bromodomains [(BRD2 (1-473) (Y113A) and (Y386A), BRD3 (1-435) (Y73A) and (Y348A) BRD4 (1-477) (Y97A) and (Y390A) and BRDT (1-397) (Y66A) and (Y309A)] were expressed in E. coli cells (in pET15b vector for BRD2/3/4 and in pET28a vector for BRDT) with a 6-His tag at the N-terminal. The His-tagged Bromodomain pellet was resuspended in 50 mM HEPES (pH7.5), 300 mM NaCl, 10 mM imidazole & 1 μL/mL protease inhibitor cocktail and extracted from the E. coli cells using sonication and purified using a nickel sepharose high performance column, the proteins were washed and then eluted with a linear gradient of 0-500 mM imidazole with buffer 50 mM HEPES (pH7.5), 150 mM NaCl, 500 mM imidazole, over 20 column volumes. Final purification was completed by Superdex 200 prep grade size exclusion column. Purified protein was stored at −80° C. in 20 mM HEPES pH 7.5 and 100 mM NaCl. Protein identity was confirmed by peptide mass fingerprinting and predicted molecular weight confirmed by mass spectrometry.

| SMILES | fold selective for BRD4 BD2 over BRD4 BD1 (BRD4 BD2 over BRD4 BD1) | IC50 (BRD4 BD2) | selectivity for BRD4 BD2 over BRD4 BD1 (BRD4 BD2 over BRD4 BD1) | other results |
| --- | --- | --- | --- | --- |
| CNC(=O)c1cc(C(=O)N[C@H]2C[C@@H]2C)cc(C(OC)c2ccnc3[nH]ccc23)n1 (relative stereo) [Example 106, 6-((R*-Methoxy(1H-pyrrolo[2,3-b]pyridin-4-yl)methyl)-N^2 methyl-N^4-((1S,2S)-2-methylcyclopropyl)pyridine-2,4-dicarboxamide] | at least 1000 fold |  |  | pIC50 in the BRD4 BD2 assay (BRD4 BD2): 7.6 log10 units |
| CNC(=O)c1cc(C(=O)NC2CC2)cc([C@@H](O)c2ccccc2C)n1 (single isomer, unassigned) [Example 116, (S*)-N^4-cyclopropyl-6-(hydroxy(o-tolyl)methyl)-N^2-methylpyridine-2,4-dicarboxamide] |  | 1000 to 10000 nM |  |  |
| CNC(=O)c1cc(C(=O)N[C@H]2C[C@@H]2C)cc(Cc2cncc3[nH]ccc23)n1 [Example 46, 6-((1H-Pyrrolo[2,3-c]pyridin-4-yl)methyl)-N^2-methyl-N^4-((1S,2S)-2-methylcyclopropyl)pyridine-2,4-dicarboxamide] | at least 100 fold | 79.4 nM | 2.8 log unit |  |
| CNC(=O)c1cc(C(=O)NC2CC2C)cc(C(C)c2cncc3[nH]ccc23)n1 [Example 49, 6-((S*-1-(1H-Pyrrolo[2,3-c]pyridin-4-yl)ethyl)-N^2-methyl-N^4 ((1S,2S)-2-methylcyclopropyl)pyridine-2,4-dicarboxamide] | at least 100 fold | 12.6 nM | 2.8 log unit |  |
| CNC(=O)c1cc(C(=O)N[C@H]2C[C@@H]2C)cc(Cn2ccccc2=O)n1 [Example 54, N^2-Methyl-N^4-((1S,2S)-2-methylcyclopropyl)-6-((2-oxopyridin-1(2H)-yl)methyl)pyridine-2,4-dicarboxamide] |  | 1000 to 10000 nM |  |  |
| CNC(=O)c1cc(C(=O)N[C@H]2C[C@@H]2C)cc(Cc2ccnc3[nH]ccc23)n1 [Example 80, 6-((1H-Pyrrolo[2,3-b]pyridin-4-yl)methyl)-N^2-methyl-N^4-((1S,2S)-2-methylcyclopropyl)pyridine-2,4-dicarboxamide] | at least 1000 fold | 39.8 nM |  |  |
| CNC(=O)c1cc(C(=O)N[C@H]2C[C@@H]2C)cc(Cc2cccc3c2CCN3)n1 [Example 83, 6-(indolin-4-ylmethyl)-N^2-methyl-N^4-((1S,2S)-2-methylcyclopropyl)pyridine-2,4-dicarboxamide] | at least 100 fold | 31.6 nM | 2.9 log unit |  |
| COc1ccc2c(c1)C(c1ccc(Cl)cc1)=N[C@@H](CC(=O)NCCCCCNC(=O)CCCCCC1(C)/C(=C/C=C/C=C/C3=[N+](CCCCS(=O)(=O)O)c4ccc(S(=O)(=O)O)cc4C3(C)C)N(CCCCS(=O)(=O)[O-])c3ccc(S(=O)(=O)O)cc31)c1nnc(C)n1-2 (stereo partly drawn) [Reference Compound X] |  |  |  | reduction in Kd (affinity) of double mutant tandem proteins in comparison to wild type tandem BET proteins ([1]; double residue (Tyr to Ala) mutant tandem domain proteins): > 1000 fold; reduction of Kd of the interaction between the mutated bromodomain and Reference Compound X ([1]; single mutation of Tyrosine to Alanine): > 1000 fold; affinity of single mutated bromodomain tandem proteins versus corresponding non-mutated BET protein ([1]; single residue (Tyr to Ala) mutants): equi-potent |
